Measured values: PubChem BioAssay (NCI)
Where “and” joins values, the source holds several entries; their conditions need not be identical. Identical values can stand only once.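 Following 48 hours of exposure in 96-well plates, responses at five concentrations were used to interpolate endpoints linearly. GI50 = concentration required for 50% inhibition of growth. TGI denotes the concentration required for complete inhibition of growth.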

Assays:
Assay in all cases: DTP human tumour cell line panel, 48 h
[1] = system: SN12C renal
[2] = system: OVCAR-8 ovarian
[3] = system: HL-60(TB) leukemia
[4] = system: HOP-62 NSCLC
[5] = system: HOP-92 NSCLC
[6] = system: NCI-H226 lung
[7] = system: PC-3 prostate
[8] = system: SK-MEL-2 melanoma

SMILES	GI50 [1]	TGI [1]	GI50 [2] [µM]	TGI [2]	GI50 [3] [µM]	TGI [3] [µM]	GI50 [4] [µM]	TGI [4] [µM]	GI50 [5] [µM]	TGI [5]	GI50 [6]	TGI [6]	GI50 [7] [µM]	TGI [7]	GI50 [8] [µM]	TGI [8]
O=C1NCN(c2ccccc2)C12CCN(CCCC(c1ccc(F)cc1)c1ccc(F)cc1)CC2	2.45 µM	8.36 µM	1.6	3.05 µM	1.82	4	1.84	3.52	0.397	2.62 µM	7.36 µM	35.5 µM	2.49	10.7 µM	1.56	2.98 µM
c1cc(CN2CCCNCCNCCCNCC2)ccc1CN1CCCNCCNCCCNCC1	> 100 µM	> 100 µM	> 100	> 100 µM	> 100	> 100	> 100	> 100	> 100	> 100 µM	> 100 µM	> 100 µM	> 100	> 100 µM	> 100	> 100 µM
c1ccc2cc(Cn3cc[n+](Cc4ccc5ccccc5c4)c3)ccc2c1	0.846 µM	7.03 µM	1.64	12.3 µM	0.264	1.35	3.26	17	0.16	1.39 µM	1.72 µM	14.3 µM	0.535	5.6 µM	1.37	4.35 µM
O=C1/C(=C/c2ccc(F)c(F)c2)CN(C(=O)C(Cl)Cl)C/C1=C\c1ccc(F)c(F)c1	0.112 µM	0.381 µM	0.0564	1.31 µM	0.113	0.97	0.239	0.745	0.211	0.629 µM	1.13 µM	5.72 µM	0.0477	0.273 µM	0.262	0.785 µM
Nc1ncn(C2OC(COP(=O)(O)O)C(O)C2O)c(=O)n1 (stereo not given)	–	> 100 µM	–	> 68.9 µM	–	> 100	–	> 100	–	> 100 µM	–	> 100 µM	–	> 100 µM	–	> 100 µM
Cc1ccc(-c2c(C#N)[n+](=O)c3cc(F)c(F)cc3n2[O-])cc1	2.61 µM	8.56 µM	20.8	40.3 µM	–	–	5.26	19.7	1.68	3.84 µM	15.7 µM	32.3 µM	1.43	3.35 µM	–	–
O=C(O)C(Br)C(Br)C(=O)O (stereo not given)	–	> 100 µM	–	> 100 µM	–	> 100	–	> 100	–	> 100 µM	–	> 100 µM	–	> 100 µM	–	> 100 µM
O=C1C=C2C=CC3CC2(O1)C1CCCCN31 (stereo not given)	11.8 µM and 14.8 µM and 25 µM	31.4 µM and 33.7 µM and 74.4 µM	–	72.6 µM and 40.2 µM and 93.8 µM	–	79.2	–	–	–	65.8 µM and 48.3 µM and 66 µM	19.7 µM and 6 µM and 51.7 µM	> 100 µM and 45.3 µM	–	> 100 µM and 73.4 µM	–	> 100 µM and 44.5 µM and 94.4 µM
Cc1cc(C(=O)Nc2cc(Oc3ccc4nc(NC(=O)C5CC5)cn4n3)ccc2C)n(C)n1	> 10 µM	> 10 µM	> 10	> 10 µM	9.56	> 10	> 10	> 10	3.27	> 10 µM	0.86 µM	> 10 µM	> 10	> 10 µM	> 10	> 10 µM
Clc1ccccc1[C@@H]1C[C@@H]2Cc3cc(Br)c4ccccc4c3N1O2	8.71 µM	> 100 µM	5.45	> 100 µM	4.4	> 100	5.7	> 100	3.07	35.6 µM	3.65 µM	> 100 µM	5.85	> 100 µM	2.54	6.61 µM
CC/C=C\C[C@H](O)C/C=C1/C(=O)C=C[C@@H]1C/C=C\CCCC(=O)OC(C)C	2.42 µM	6.35 µM	2.8	8.38 µM	0.824	6.71	2.45	6.01	2.25	4.88 µM	2.58 µM	6.08 µM	1.58	3.49 µM	2.02	4.77 µM
O=C1NC(=O)[C@@]2(CC[C@@H](O)C2)c2ccncc21	–	> 100 µM	–	> 100 µM	–	> 100	–	–	–	> 100 µM	–	> 100 µM	–	> 100 µM	–	> 100 µM
O=C(O)/C=C/c1ccc[c]([Sb](=[O])([OH])[OH])c1	> 100 µM	> 100 µM	> 100	> 100 µM	> 100	> 100	> 100	> 100	> 100	> 100 µM	> 100 µM	> 100 µM	> 100	> 100 µM	> 100	> 100 µM
Cc1ccc2[nH]c3c(c2c1)N=c1ccccc1=NO3	36.5 µM	> 100 µM	17.5	43 µM	> 100	> 100	–	–	> 100	> 100 µM	70 µM	> 100 µM	57	> 100 µM	> 100	> 100 µM
COc1ccc(C(C#N)=C2C=CC(=NO)C=C2)cc1	12.5 µM	27.6 µM	10.2	22.9 µM	3.08	57.5	2.47	6.5	–	–	3.97 µM	15.2 µM	3.74	17.1 µM	2.59	6.18 µM
CCN(CC)CCCOc1ccc2ncnc(Nc3ccc(Oc4cccc(C(F)(F)F)c4)c(Cl)c3)c2c1	1.34 µM	2.69 µM	–	–	–	–	–	–	1.23	2.61 µM	–	–	1.75	3.58 µM	–	–
O=C1OCC(c2ccc(O)cc2)=C1c1cc(O)c(O)c(O)c1	54 µM	> 100 µM	> 100	> 100 µM	–	–	58.6	> 100	> 100	> 100 µM	> 100 µM	> 100 µM	> 100	> 100 µM	–	–
CCNc1cc2oc(=O)cc(C(F)(F)F)c2cc1C	–	> 100 µM	–	> 100 µM	–	–	–	> 100	–	> 100 µM	–	> 100 µM	–	> 100 µM	–	> 100 µM
